molecular target: T1, human GLP-1 receptor (Homo sapiens, UniProt P43220); experiment: GLP-1R cAMP assay (cAMP accumulation in CHO cells stably overexpressing the human GLP-1 receptor, HitHunter kit); assay type: cell-based; conditions: CHO cells stably overexpressing human GLP-1R, 30 min, 20-point dose response in triplicate
T1 construct: expressed in transfected cells
Procedure: CAMP accumulation was measured in Chinese hamster ovary (CHO) cells (10,000 cells/well) stably overexpressing the human GLP-1 receptor using the HitHunter CAMP Assay for Small Molecules Kit (Eurofins). Briefly, cells were grown in Ham's F12 Nutrient Mix with 10% FBS, and lifted with Cell Dissociation Buffer, Enzyme free, PBS based (ThermoFisher). Cells were pelleted, and resuspended in Hank's buffered saline solution with 10 mM HEPES, and 625 μM 3-isobutyl-1-methylxanthine. The anti-cAMP antibody reagent was then added to cells at a 1:2 ratio and 5 μL of mixture was seeded in 384-well small volume white assay plates, at 10,000 cells/well. Cells were then treated with 50 nL compound using an ECHO 550 acoustic dispenser (Labcyte) in a 20-point dose response format in triplicate for 30 min. Cells were then lysed, and detection reagents added according to the manufacturer's protocol. After overnight incubation, luminescence was measured using a Perkin Elmer Envision plate reader. Dose response curves were analyzed using GraphPad Prism 9.0.
In the Table, EC50 values are designated as follows: • A: 0 nM<EC50<0.1 nM; • B: 0.1 nM≤EC50<1.0 nM; • C: 1.0 nM≤EC50<10.0 nM; • D: 10.0 nM≤EC50<100 nM; • E: 100 nM≤EC50<500 nM; and • F: ≥500 nM

T1 sequence (P43220 24-463): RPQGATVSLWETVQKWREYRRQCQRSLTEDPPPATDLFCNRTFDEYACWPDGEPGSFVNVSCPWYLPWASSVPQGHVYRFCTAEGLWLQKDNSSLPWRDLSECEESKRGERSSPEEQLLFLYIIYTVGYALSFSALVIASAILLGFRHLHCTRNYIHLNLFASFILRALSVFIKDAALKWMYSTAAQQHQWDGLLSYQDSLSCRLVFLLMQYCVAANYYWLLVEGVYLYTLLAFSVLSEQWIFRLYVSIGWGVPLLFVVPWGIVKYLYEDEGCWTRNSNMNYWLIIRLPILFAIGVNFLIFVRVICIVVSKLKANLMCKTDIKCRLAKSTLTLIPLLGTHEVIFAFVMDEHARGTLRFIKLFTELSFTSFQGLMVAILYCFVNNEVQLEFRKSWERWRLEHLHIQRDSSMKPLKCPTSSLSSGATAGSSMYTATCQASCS

Row | Compound | EC50 [nM]
1 | C[C@H]1C[C@@H](Oc2ccnc(COc3ccc(F)cc3F)n2)CCN1Cc1nc2ccc(C(=O)O)cc2n1CC1CCC1 [Compound 590, 1-(Cyclobutylmethyl)-2-{[(2S,4S)-4-({2-[(2,4-difluorophenoxy)methyl]pyrimidin-4-yl}oxy)-2-methylpiperidin-1-yl]methyl}-1H-1,3-benzodiazole-6-carboxylic acid] | 0.1 to 1
2 | C[C@@H](Cn1c(CN2CC[C@H](Oc3ccnc(COc4ccc(F)cc4F)n3)C[C@@H]2C)nc2ccc(C(=O)O)cc21)OC(F)F [Compound 591, 1-[(2S)-2-(Difluoromethoxy)propyl]-2-{[(2S,4S)-4-({2-[(2,4-difluorophenoxy)methyl]pyrimidin-4-yl}oxy)-2-methylpiperidin-1-yl]methyl}-1H-1,3-benzodiazole-6-carboxylic acid] | 0.1 to 1
3 | C[C@H](Cn1c(CN2CC[C@H](Oc3ccnc(COc4ccc(F)cc4F)n3)C[C@@H]2C)nc2ccc(C(=O)O)cc21)OC(F)F [Compound 592, 1-[(2R)-2-(Difluoromethoxy)propyl]-2-{[(2S,4S)-4-({2-[(2,4-difluorophenoxy)methyl]pyrimidin-4-yl}oxy)-2-methylpiperidin-1-yl]methyl}-1H-1,3-benzodiazole-6-carboxylic acid] | < 0.1
4 | C[C@H](Cn1c(CN2CC[C@H](Oc3ccnc(COc4ccc(F)cc4F)n3)C[C@@H]2C)nc2ccc(C(=O)O)cc21)OCC(F)(F)F [Compound 594, 2-{[(2S,4S)-4-({2-[(2,4-Difluorophenoxy)methyl]pyrimidin-4-yl}oxy)-2-methylpiperidin-1-yl]methyl}-1-[(2R)-2-(2,2,2-trifluoroethoxy)propyl]-1H-1,3-benzodiazole-6-carboxylic acid] | 1 to 10
5 | C[C@H]1C[C@@H](Oc2ccnc(COc3ncc(Cl)cc3F)n2)CCN1Cc1nc2ccc(C(=O)O)cc2n1CCOCC(F)(F)F [Compound 595, 2-{[(2S,4S)-4-[(2-{[(5-chloro-3-fluoropyridin-2-yl)oxy]methyl}pyrimidin-4-yl)oxy]-2-methylpiperidin-1-yl]methyl}-1-[2-(2,2,2-trifluoroethoxy)ethyl]-1H-1,3-benzodiazole-6-carboxylic acid] | 0.1 to 1
6 | C[C@H]1C[C@@H](Oc2ccnc(COc3ccc(C#N)cc3F)n2)CCN1Cc1nc2ccc(C(=O)O)cc2n1CCOCC(F)(F)F [Compound 596, 2-{[(2S,4S)-4-({2-[(4-Cyano-2-fluorophenoxy)methyl]pyrimidin-4-yl}oxy)-2-methylpiperidin-1-yl]methyl}-1-[2-(2,2,2-trifluoroethoxy)ethyl]-1H-1,3-benzodiazole-6-carboxylic acid] | < 0.1
7 | C[C@H]1C[C@@H](Oc2ccnc(COc3ncc(Cl)cc3F)n2)CCN1Cc1nc2c(F)cc(C(=O)O)cc2n1C[C@@H]1CCO1 [Compound 597, 2-{[(2S,4S)-4-[(2-{[(5-Chloro-3-fluoropyridin-2-yl)oxy]methyl}pyrimidin-4-yl)oxy]-2-methylpiperidin-1-yl]methyl}-4-fluoro-1-{[(2S)-oxetan-2-yl]methyl}-1H-1,3-benzodiazole-6-carboxylic acid] | < 0.1
8 | C[C@@H](Cn1c(CN2CC[C@H](Oc3ccnc(COc4ccc(F)cc4F)n3)C[C@@H]2C)nc2ccc(C(=O)O)cc21)OCC(F)(F)F [Compound 598, 2-{[(2S,4S)-4-({2-[(2,4-Difluorophenoxy)methyl]pyrimidin-4-yl}oxy)-2-methylpiperidin-1-yl]methyl}-1-[(2S)-2-(2,2,2-trifluoroethoxy)propyl]-1H-1,3-benzodiazole-6-carboxylic acid] | 0.1 to 1
9 | N#Cc1ccc(OCc2nccc(O[C@H]3CCN(Cc4nc5ccc(C(=O)O)cc5n4C[C@@H]4CCO4)[C@@H](C(F)(F)F)C3)n2)c(F)c1 [Compound 599, 2-{[(2R,4S)-4-({2-[(4-cyano-2-fluorophenoxy)methyl]pyrimidin-4-yl}oxy)-2-(trifluoromethyl)piperidin-1-yl]methyl}-1-{[(2S)-oxetan-2-yl]methyl}-1H-1,3-benzodiazole-6-carboxylic acid] | 0.1 to 1

Second part, the molecule after the results:

Row | EC50 [nM] | Compound
10 | 0.1 to 1 | COC1(Cn2c(CN3CC[C@H](Oc4ccnc(COc5ccc(F)cc5F)n4)C[C@@H]3C)nc3ccc(C(=O)O)cc32)CCC1 [Compound 600, 2-{[(2S,4S)-4-({2-[(2,4-Difluorophenoxy)methyl]pyrimidin-4-yl}oxy)-2-methylpiperidin-1-yl]methyl}-1-[(1-methoxycyclobutyl)methyl]-1H-1,3-benzodiazole-6-carboxylic acid]
11 | < 0.1 | C[C@H]1C[C@@H](Oc2ccnc(COc3ccc(F)cc3C#N)n2)CCN1Cc1nc2ccc(C(=O)O)cc2n1CCOCC(F)(F)F [Compound 601, 2-{[(2S,4S)-4-({2-[(2-cyano-4-fluorophenoxy)methyl]pyrimidin-4-yl}oxy)-2-methylpiperidin-1-yl]methyl}-1-[2-(2,2,2-trifluoroethoxy)ethyl]-1H-1,3-benzodiazole-6-carboxylic acid]
12 | 0.1 to 1 | C[C@H](Cn1c(CN2CC[C@H](Oc3ccnc(COc4ncc(Cl)cc4F)n3)C[C@@H]2C)nc2ccc(C(=O)O)cc21)OC(F)F [Compound 602, 2-{[(2S,4S)-4-[(2-{[(5-Chloro-3-fluoropyridin-2-yl)oxy]methyl}pyrimidin-4-yl)oxy]-2-methylpiperidin-1-yl]methyl}-1-[(2R)-2-(difluoromethoxy)propyl]-1H-1,3-benzodiazole-6-carboxylic acid]
13 | < 0.1 | C[C@H]1C[C@@H](Oc2ccnc(COc3ccc(Cl)cn3)n2)CCN1Cc1nc2c(F)cc(C(=O)O)cc2n1C[C@@H]1CCO1 [Compound 603, 2-{[(2S,4S)-4-[(2-{[(5-Chloropyridin-2-yl)oxy]methyl}pyrimidin-4-yl)oxy]-2-methylpiperidin-1-yl]methyl}-4-fluoro-1-{[(2S)-oxetan-2-yl]methyl}-1H-1,3-benzodiazole-6-carboxylic acid]
14 | 0.1 to 1 | C[C@H]1C[C@@H](Oc2ccnc(COc3ccc(C#N)cn3)n2)CCN1Cc1nc2c(F)cc(C(=O)O)cc2n1C[C@@H]1CCO1 [Compound 604, 2-{[(2S,4S)-4-[(2-{[(5-cyanopyridin-2-yl)oxy]methyl}pyrimidin-4-yl)oxy]-2-methylpiperidin-1-yl]methyl}-4-fluoro-1-{[(2S)-oxetan-2-yl]methyl}-1H-1,3-benzodiazole-6-carboxylic acid]
15 | < 0.1 | O=C(O)c1cc(F)c2nc(CN3CCC(Oc4ccnc(COc5ncc(Cl)cc5F)n4)CC3)n(C[C@@H]3CCO3)c2c1 [Compound 605, 2-({4-[(2-{[(5-Chloro-3-fluoropyridin-2-yl)oxy]methyl}pyrimidin-4-yl)oxy]piperidin-1-yl}methyl)-4-fluoro-1-{[(2S)-oxetan-2-yl]methyl}-1H-1,3-benzodiazole-6-carboxylic acid]
16 | < 0.1 | C[C@H]1C[C@@H](Oc2ccnc(COc3ncc(F)cc3F)n2)CCN1Cc1nc2c(F)cc(C(=O)O)cc2n1C[C@@H]1CCO1 [Compound 606, 2-(((2S,4S)-4-((2-(((3,5-difluoropyridin-2-yl)oxy)methyl)pyrimidin-4-yl)oxy)-2-methylpiperidin-1-yl)methyl)-4-fluoro-1-(((S)-oxetan-2-yl)methyl)-1H-benzo[d]imidazole-6-carboxylic acid]
17 | < 0.1 | C[C@H]1C[C@@H](Oc2ccnc(COc3ncc(C#N)cc3F)n2)CCN1Cc1nc2c(F)cc(C(=O)O)cc2n1C[C@@H]1CCO1 [Compound 607, 2-{[(2S,4S)-4-[(2-{[(5-Cyano-3-fluoropyridin-2-yl)oxy]methyl}pyrimidin-4-yl)oxy]-2-methylpiperidin-1-yl]methyl}-4-fluoro-1-[(oxetan-2-yl)methyl]-1H-1,3-benzodiazole-6-carboxylic acid]
18 | 0.1 to 1 | CC[C@H]1C[C@@H](Oc2ccnc(COc3ncc(Cl)cc3F)n2)CCN1Cc1nc2ccc(C(=O)O)cc2n1C[C@@H]1CCO1 [Compound 608, 2-{[(2S,4S)-4-[(2-{[(5-Chloro-3-fluoropyridin-2-yl)oxy]methyl}pyrimidin-4-yl)oxy]-2-ethylpiperidin-1-yl]methyl}-1-[(oxetan-2-yl)methyl]-1H-1,3-benzodiazole-6-carboxylic acid]
19 | 10 to 100 | CC[C@@H]1C[C@H](Oc2ccnc(COc3ncc(Cl)cc3F)n2)CCN1Cc1nc2ccc(C(=O)O)cc2n1C[C@@H]1CCO1 [Compound 609, 2-{[(2R,4R)-4-[(2-{[(5-Chloro-3-fluoropyridin-2-yl)oxy]methyl}pyrimidin-4-yl)oxy]-2-ethylpiperidin-1-yl]methyl}-1-[(oxetan-2-yl)methyl]-1H-1,3-benzodiazole-6-carboxylic acid]
20 | 0.1 to 1 | C[C@H]1C[C@@H](Oc2ccnc(COc3ccc(F)cc3F)n2)CCN1Cc1nc2ccc(C(=O)O)cc2n1C[C@H]1CCS1(=O)=O [Compound 610, 2-(((2S,4S)-4-((2-((2,4-difluorophenoxy)methyl)pyrimidin-4-yl)oxy)-2-methylpiperidin-1-yl)methyl)-1-(((R)-1,1-dioxidothietan-2-yl)methyl)-1H-benzo[d]imidazole-6-carboxylic acid]
21 | 0.1 to 1 | C[C@H]1C[C@@H](Oc2ccnc(COc3ccc(F)cc3F)n2)CCN1Cc1nc2ccc(C(=O)O)cc2n1C[C@@H]1CCS1(=O)=O [Compound 611, 2-(((2S,4S)-4-((2-((2,4-difluorophenoxy)methyl)pyrimidin-4-yl)oxy)-2-methylpiperidin-1-yl)methyl)-1-(((S)-1,1-dioxidothietan-2-yl)methyl)-1H-benzo[d]imidazole-6-carboxylic acid]
